# Measured values reported in PMC5937893, “Heat-stable sublingual oxytocin tablets as a potential needle-free approach for preventing postpartum hemorrhage in low-resource settings” (Drug Delivery and Translational Research, 2018).
# Experiments:
# [1] = Saliva stability study; assay type: in vitro ADME; conditions: pooled human saliva, 37 °C, 1 hour, HPLC, content at 1 hour divided by content at time zero, two aliquots per time point
# Procedure: Since the oxytocin FDTs are intended to be administered under the tongue, we confirmed the stability of oxytocin in saliva prior to initiation of the pharmacokinetic study. The FDTs were incubated in pooled human saliva maintained at 37 °C for an hour along with unformulated oxytocin as a control. […]
# the resting TEER measurement from the final TEER measurement. A reduction in the TEER indicates increased permeability of oral tissue after treatment.
# Disintegration testing: Non-sink method
# 50, 60, 90 seconds) for complete disintegration. […]
# aliquoted into four different vials. […]
# immediately. […] The other two
# HPLC mobile phase liquid and centrifuged immediately. The supernatants were loaded for HPLC analysis at the […]
# 1-hour divided by the content at time zero.
# Test material Route of administration (IU/animal) Dose administered
# Formulation 4 Sublingual 600 1 tablet
# Formulation 4 Sublingual 400 1 tablet
# Control Intramuscular 20 1 mL of 20 IU/mL
# The FDTs were administered […]
# once on days 1, 3, 8, 15, and 18. […]
# aid in dissolution of the tablet. […]
# right hind limb (biceps femoris) once on day 22.
# [2] = in vivo
# Procedure: (§1) Next, a crossover pharmacokinetic study with 24-h washout was conducted to determine oxytocin plasma levels after SL administration and to compare with the standard IM route in female mini pigs, chosen due to the similarity in oral cavity architecture with humans. Ten anesthetized female, non-pregnant Yucatan miniature swine, Sus scrofa 3 to 5 months old and weighing 15 to 20 kg were administered an oxytocin FDT under the tongue. For the control, mini pigs received 20 IU of oxytocin in a 1 mL IM injection into the right hind limb. […] Blood was collected from both groups at several time points up to 60 min after administration, via previously implanted vascular access ports, and plasma was obtained for analysis. A commercial enzyme-linked immunosorbent assay kit was used to detect oxytocin in the plasma.
# (§2) The pharmacokinetic data were derived from ten non-pregnant female Yucatan miniature swine, Sus scrofa, aged 3
# (§3) to 5 months, weighing 15 to 20 kg (Sinclair Bio-Resources, LLC, Auxvasse, MO, USA). Ten experimental pigs
# (§4) received a sublingual (SL) tablet with 400 IU of oxytocin, and ten received SL tablets with 600 IU oxytocin. Ten
# (§5) control pigs received 20 IU of oxytocin in a 1 mL intramuscular (IM) injection.
# (§6) Animals were anesthetized with dexmedetomidine (0.04 mg/kg) mixed with midazolam (0.2 mg/kg), and anesthesia […]
# [3] = parameters: method as in earlier work; conditions: women, buccal route, levels greater than 1000 IU, induction of labor; ref [10]; cited from earlier work
# [4] = in vivo; conditions: female, Yucatan miniature swine, pig, im, 20 IU
# Procedure: as §1, §2, §3, §4, §5, §6
compound,measurement,setting,value
CC[C@H](C)[C@@H]1NC(=O)[C@H](Cc2ccc(O)cc2)NC(=O)[C@@H](N)CSSC[C@@H](C(=O)N2CCC[C@H]2C(=O)N[C@@H](CC(C)C)C(=O)NCC(N)=O)NC(=O)[C@H](CC(N)=O)NC(=O)[C@H](CCC(N)=O)NC1=O [oxytocin],Proteolytic degradation of oxytocin in saliva,[1],none to minimal proteolytic degradation
same,Plasma levels of oxytocin in unanesthetized versus anesthetized pigs,[2],significantly higher
same,Adverse events,[3],without any adverse events
same,Cmax,[4],0.612 ng/mL
